Measurements from patent US20250002569A1, “METHOD OF TREATING OSTEOARTHRITIS” (AlaMab Therapeutics, Inc., priority 2023, published 2025).
Structures can show the parent of a compound that is named as a salt.

Legend:
Format in all cases: in vivo, Sprague Dawley (SD) rats
[1] = tested on: rats with osteoarthritis induced by pMMx+ACLT; experiment: Gait score (Coderre scoring method) in pMMx+ACLT osteoarthritis rat model; conditions: for Gait Score: Duloxetine 5 mg/kg i.g. daily
Procedure: (§1) After acclimation of the animals, the animals were evaluated for normal pain threshold (on Day 1 of study) using the Von Frey, or Up-Down, method, and for biped balance degree of the knee joint on the surgical side (right hind limb) using a biped balance tester. The rats were then anesthetized with isoflurane, and the knee joints were depilated and disinfected. Osteoarthritis was induced in the animals by partial medial meniscectomy in combination with anterior cruciate ligament transection (pMMx+ACLT). Briefly, the skin and joint cavity close to the inner side of the right knee were cut, the knee joint was placed in the maximum flexion state, with the joint cavity exposed and the medial meniscus separated. The medial ⅓ meniscus and the anterior cruciate ligament were then cut-off. For the control animal group (no osteoarthritis induction), only the skin was cut to open the joint cavity without removing the ligament or meniscus. The date of the osteoarthritis model establishment was Day 8 of the study.
(§2) One week after model establishment (Day 15 of study), before administration of treatment, the basic pain threshold of plantar pain was evaluated on the operation side for each of the animals, and the osteoarthritis model rats were evenly divided according to the basic Von Frey reaction value (2-5), with 8 animals used for each of the osteoarthritis model group (vehicle-treatment), the positive control drug (duloxetine) 5 mg/kg group, and the ALMB-0166 15 mg/kg, 25 mg/kg, and 50 mg/kg dose groups. After grouping, drug treatment was started on Day 15 of study. For each of the ALMB-0166-treated test groups, the treatment was administered intravenously, once a week, with four total doses (on Day 15, 22, 29, and 36 of the study, corresponding to day 1, 8, 15 and 22 of treatment). For the positive control group, duloxetine was administered orally every day until the end of the experimental cycle.
(§3) Weight measurements were taken for animals in each test group on Days 15, 22, 29 and 36 of the study. On Days 16, 23, 30 and 37, the gait of each animal, the change of plantar pain threshold induced by knee joint lesions on the operative side, and the weight bearing of both lower limbs were measured for each animal was scored on according to the Coderre scoring method, the Up-Down method, and bipedal balance pain testing, respectively.
Coderre gait method was used to measure the gait of each animal. The gait was measured according to the following scoring: standard (Grade 0: normal walking, 0 point); Level 1 (sight claudication, slight bending below knee joint, 2 points); Level 2 (claudication, the affected limb can touch the ground, 4 points); Level 3 (severe claudication, the affected limb leaves the ground and walk on three feet, 6 points).
(§4) The gait scoring, plantar pain threshold, and weight bearing differential were expressed as the mean and […] (Mean±SD). The data between model group and administration group at multiple time points were analyzed by repeated measures analysis of variance method with SPSS Statistics 21 software, and Tamhane's method for subsequent analysis. P<0.05 was considered to have a significant difference, and p<0.01 was considered to have a very significant difference. The final data were plotted with GraphPad Prism 6 software.

[2] = tested on: rats with osteoarthritis induced by pMMx+ACLT; experiment: Mechanical pain threshold of plantar pain (Von Frey Up-Down method, 50% MWT) in pMMx+ACLT osteoarthritis rat model; conditions: for Percent Increase in 50% MWT (g) (as compared to Day 15 of study) / Pain threshold of plantar pain, 50% MWT: Duloxetine 5 mg/kg i.g. daily
Procedure: as §1, §2, §3
The Up-Down method was used to measure the plantar pain threshold. Following the Up-Down methos, each rat was placed in a transparent enclosure with a sieve-shaped metal plate at the bottom, and the animal was allowed to adapt to about 15 minutes until the autonomous exploration and grooming activities stop. Von Frey probes were then used to vertically stimulate the middle of the hind plantar of each rat to make the plantar slightly s-shaped for 5 second, and the paw withdrawal response was observed. A positive response was noted if the paw was sharply withdrawn or there was flinching upon removal. The interval between each measurement was about 10 sec. If no response was observed after probe stimulation, it was regarded as a negative reaction.
For scoring the mechanical pain, the rats were stimulated with a series of Von Frey probes of 0.4, 0.6, 1, 1.4, 2, 4, 6, 8, 10, and 15 g). Testing was start with a 2 g probe, and if a positive reaction occurred, it was recorded as an “X,” and testing was continued with a 1.4 g probe. […] Testing was continued accordingly, using the probes successively without circumvention. […] If a positive reaction was induced even by the 0.4 g probe, the 50% MWT was recorded as 0.4 g. […]

[3] = tested on: rats with osteoarthritis induced by pMMx+ACLT; experiment: Weight bearing difference of hind legs (biped balance measurement) in pMMx+ACLT osteoarthritis rat model; conditions: for Weight bearing difference of hind legs: Duloxetine 5 mg/kg i.g. daily
Procedure: as §1, §2, §3
A bipedal balance pain tester was used to evaluate the weight bearing of both lower limbs for each animal. Each animal was placed in the plexiglass cover of the biped balance pain instrument. After the animal completed their exploratory behavior, the forelimbs of the rats laid on the incline of the device, and the hind limbs stood on the left and right balance plates respectively. […] The measurements were repeated three times for each animal, with an interval of 10 seconds between each replicate measurement.
as §4

[4] = Weight of rats with osteoarthritis induced by pMMx+ACLT; conditions: Duloxetine 5 mg/kg i.g. daily
Procedure: Male Sprague Dawley (SD) rats (Specific Pathogen Free grade; Shanghai Slac Laboratory Animal Co. Ltd) were obtained in the study. Each rat was weight at the start of treatment, with the average weight ranging from 200-220 grams. Upon arrival at the test facility, the animals were housed at five rats per cage and acclimated for five to seven days prior to initiation of treatment.
as §1, §2, §3

[5] = Day 1 (before model establishment)
[6] = duloxetine 5 mg/kg, multivariate test, p<0.05

In the case of CNCC[C@H](Oc1cccc2ccccc12)c1cccs1 [Duloxetine, Duloxetine hydrochloride], the “Gait Score” value ([1]; Day 16 of study) is reported as 3.5 ± 0.9, the “Gait Score” value ([1]; Day 23 of study) is reported as 3.0 ± 1.1 and the “Gait Score” value ([1]; Day 30 of study) is reported as 1.3 ± 1.0. For the same molecule, the “Gait Score” value ([1]; Day 37 of study) was 0.0 ± 0.0, the “Gait score compared to the vehicle-treated group” value ([1]; duloxetine 5 mg/kg, multivariate test, p>0.05) was “no significant different” and the “Percent Increase in 50% MWT (g) (as compared to Day 15 of study)” value (“Percent Increase in 50% MWT (g)” for short) ([2]; Day 1) was 0.0%. The “Pain threshold of plantar pain, 50% MWT” value [2, 5] was 15.00 ± 0.00 g, the “Percent Increase in 50% MWT (g)” value ([2]; Day 15) was 0.7% and the “Pain threshold of plantar pain, 50% MWT” value ([2]; Day 15 (before administration of treatment)) was 3.23 ± 0.64 g. For the same molecule, the “Pain threshold of plantar pain, 50% MWT” value ([2]; Day 16) was 5.27 ± 2.72 g, the “Percent Increase in 50% MWT (g)” value ([2]; Day 16) was 52.9% and the “Pain threshold of plantar pain, 50% MWT” value ([2]; Day 23) was 7.11 ± 2.45 g. The “Percent Increase in 50% MWT (g)” value ([2]; Day 23) was 90.3%, the “Pain threshold of plantar pain, 50% MWT” value ([2]; Day 29) was 8.47 ± 4.92 g and the “Percent Increase in 50% MWT (g)” value ([2]; Day 30) was 108.2%. The “Pain threshold of plantar pain, 50% MWT” value ([2]; Day 37) was 9.84 ± 4.65 g, the “Percent Increase in 50% MWT (g)” value ([2]; Day 37) was 70.9% and the “Pain threshold of plantar pain over time compared with osteoarthritis model (vehicle-treated) group” value [2, 6] was “significant increase”. For the same molecule, the “Pain threshold of plantar pain at each time point” value ([2]; duloxetine dosage group, Days 23, 30 and 37 of the study, p<0.05) was “significantly increased”, the “Weight bearing difference of hind legs” value [3, 5] was 2.96 ± 1.88 g and the “Weight bearing difference of hind legs” value ([3]; Day 15 (treatment start)) was 104.28 ± 11.40 g. The “Weight bearing difference of hind legs” value ([3]; Day 16) was 95.60 ± 2.27 g, the “Weight bearing difference of hind legs” value ([3]; Day 23) was 80.91 ± 1.98 g and the “Weight bearing difference of hind legs” value ([3]; Day 30) was 56.80 ± 4.06 g. The “Weight bearing difference of hind legs” value ([3]; Day 37) was 51.12 ± 4.81 g, the “Decrease in hind limb weight bearing difference over time compared with osteoarthritis model (vehicle-treated) group” value [3, 6] was “significant” and the “Hind limb weight bearing difference at each time point” value ([3]; duloxetine test group, Days 16, 23, 30 and 37, p<0.01) was “significant decrease”. It also gave a Weight ([4]; Day 1 of study (before treatment)) of 223.8 ± 7.8 g, a Weight ([4]; Day 8 of study (model establishment, before treatment)) of 280.1 ± 11.2 g and a Weight ([4]; Day 15 of study (treatment start)) of 317.8 ± 20.4 g. The Weight ([4]; Day 22 of study) was 353.9 ± 23.0 g, the Weight ([4]; Day 29 of study) was 389.9 ± 26.2 g and the Weight ([4]; Day 36 of study) was 423.0 ± 30.0 g.
